Source: PMC3022637, “The modulation of TRPM7 currents by nafamostat mesilate depends directly upon extracellular concentrations of divalent cations” (Molecular Brain, 2010)
Read-outs that look alike come from different tables or passages of the source. One block for each molecule: values may come before it.

Key:
[1] = biological target: T1, wild-type (WT) human TRPM7 (Homo sapiens, UniProt Q96QT4); assay: Whole-cell recording of recombinant TRPM7 currents in transfected HEK293T cells (voltage ramps); format: cell-based
T1 construct: expressed in transfected cells; host or cells: HEK293T
Method: Electrophysiological recordings were made from HEK293T cells transfected wild-type (WT) human TRPM7 or the E1052A, and the D1054A mutant channels, as previously described.
Whole-cell and patch recordings were performed on HEK293T cells at room temperature (22-25°C) with Axopatch 200B (Molecular Devices, Sunnyvale, CA) amplifier. For whole-cell recordings, the Cs^+-based bath solution contained (in mM) 100 Cs-aspartate, 1 EGTA, 10 N-2-Hydroxyethylpiperazine-N'-thanesulfonic acid (HEPES) and 120 mannitol (pH adjusted to 7.4 with CsOH). When required, 1 mM ethyleneglycol-bis-(α-amino-ethyl ether) N,N'-tetra-acetic acid (EGTA) was replaced with added CaCl2 and MgCl2 as indictated in results section. The pipette solution contained 100 Cs-aspartate, 1 EGTA, 10 HEPES, 0.5 CsCl, and 100 mannitol (pH 7.4). The inhibition ratio (%) was calculated according to the following equation: inhibition ratio (%) = 100 × [1 - (INM)/(ICtl)], where ICtl is whole-cell current observed before application of NM at +100 and -100 mV. INM represents the current observed during application of NM.
Data were analyzed with Clampfit 9.2. (Molecular Devices, Sunnyvale, CA), Excel 2002 (Microsoft Corporation, Redmond, WA), Origin 5.0 (OriginLab Corp., Northhampton, MA) and finalized illustrated using CorelDraw X3 (Corel Corporation; Ontario, Canada). Currents were normalized to the amplitude of control responses. NM or DAPI inhibitory concentration-response plots were fitted to the logistic equation: I = (Amax-A0)/[1+(X/IC50)^n]+A0, where I is the normalized current amplitude, X is the antagonist concentration; n is Hill coefficient; IC50 is the concentration of antagonist that generate 50% of maximal inhibition. Results are reported for the text, the figures and amplitude histograms, as mean ± S.E.M. They represent the mean of n individual measurements on different cells. Statistical analysis was done with the unpaired or paired t-test, when appropriate. Chemicals are re-drawn based on the structures downloaded from Pubchem. NM was purchased from BioMol (Plymouth Meeting, PA) and its metabolites p-GBA and AN were from TCI and gabexate, DAPI, HSB from Sigma (St. Louis, MO).

[2] = test system: T2, human TRPM7 E1052A mutant; assay: Whole-cell recording of E1052A mutant TRPM7 currents in HEK293T cells; format: cell-based; details: 1 mM NM; 0.1 mM Ca2+ and 0.1 mM Mg2+; inward current at -100 mV
T2 construct: expressed in transfected cells; host or cells: HEK293T
Method: Electrophysiological recordings were made from HEK293T cells transfected wild-type (WT) human TRPM7 or the […], and the […] mutant channels, as previously described. Whole-cell and patch recordings were performed on HEK293T cells at room temperature (22-25°C) with Axopatch 200B (Molecular Devices, Sunnyvale, CA) amplifier. […] When required, 1 mM ethyleneglycol-bis-(α-amino-ethyl ether) N,N'-tetra-acetic acid (EGTA) was replaced with added CaCl2 and MgCl2 as indictated in results section. […] INM represents the current observed during application of NM.

[3] = biological target: T3, TRPM7 current in cultured mouse hippocampal neurons (Mus musculus, UniProt Q923J1); assay: Whole-cell voltage clamp of TRPM7 currents in cultured hippocampal neurons (low divalent cation-induced or compound-activated); format: cell-based; details: for IC50: -60 mV, acutely applied, read-out: IC50, block of TRPM7 current
T3 construct: supports the substantial involvement of endogenous TRPM7 channels in the responses of neurons; endogenous in cells; host or cells: primary cultured hippocampal neurons from embryonic Swiss mice

[4] = test system: intracellular Ca2+ in cultured hippocampal neurons; assay: Fura-2 calcium imaging in cultured hippocampal neurons; format: cell-based, mouse
Method: (§1) Time-pregnant Swiss mice (embryonic day 16) were anesthetized with halothane and were decapitated. Brains of fetuses were removed rapidly and placed in Ca^2+ and Mg^2+ free ice cold PBS. Whole hippocampus or cerebral cortices were dissected under a dissection microscope and incubated with 0.05% trypsin-EDTA for 10 min at 37°C, then triturated with fire-polished glass pipettes. Cells were counted and plated in poly-L-ornithine-coated culture dishes at a density of 1 × 10^6 cells per 35 mm diameter dish. Neurons were cultured with neurobasal medium supplemented with B27 and maintained at 37°C in a humidified 5% CO2 atmosphere incubator. Cultures were fed twice a week. Neurons at 14-21 day culture stages were used for electrophysiological recordings and calcium image.
Fura-2 fluorescent Ca^2+ imaging was performed as described previously. Cortical or hippocampal neurons grown on 25 mm round glass coverslips were washed three times with ECF and incubated with 5 μM Fura-2-AM for ~ 40 min at room temperature. Neurons were then washed three times and incubated in normal ECF for 30 min. Coverslips with Fura-2-loaded neurons were transferred to a perfusion chamber on the stage of an inverted microscope (Nikon TE300, Tokyo, Japan). Cells were illuminated using a xenon lamp (75W) and observed with a 40 × UV fluor oil-immersion objective lens. Video images were obtained using a cooled CCD camera (Sensys KAF 1401, Photometrics, Tucson, AZ) mounted on an inverted microscope (Nikon TE300, Tokyo, Japan). Digitized images were acquired, stored, and analyzed in a PC controlled by Axon Imaging Workbench software (AIW2.1, Molecular Devices, Sunnyvale, CA). The shutter and filter wheel (Lambda 10-2, Sutter Instrument, Novato, CA) were also controlled by AIW to allow timed illumination of cells at 340 and 380 nm excitation wavelengths. Fura-2 fluorescence was detected at an emission wavelength of 510 nm. Ratio images of 340/380 nm were analyzed by averaging pixel ratio values in circumscribed regions of cells in the field of view. […]

[5] = test system: intracellular Ca2+ in cultured mouse cortical neurons; assay: Fura-2 calcium imaging in cultured cortical neurons; format: cell-based; details: NM 50 μM; without NM 1.17 ± 0.03
Method: as §1
Fura-2 fluorescent Ca^2+ imaging was performed as described previously. Cortical or hippocampal neurons grown on 25 mm round glass coverslips were washed three times with ECF and incubated with 5 μM Fura-2-AM for ~ 40 min at room temperature. […] Digitized images were acquired, stored, and analyzed in a PC controlled by Axon Imaging Workbench software (AIW2.1, Molecular Devices, Sunnyvale, CA). […] Fura-2 fluorescence was detected at an emission wavelength of 510 nm. Ratio images of 340/380 nm were analyzed by averaging pixel ratio values in circumscribed regions of cells in the field of view. […]

[6] = test system: cultured hippocampal neurons; assay: On-cell loose-patch recording of low Ca2+-induced action potential firing; format: cell-based, mouse; details: NM 200 μM; induced by 0.5 mM Ca2+ and 0.5 mM Mg2+; control 8.5 ± 2.7 Hz
[7] = test system: CA1 neurons in the hippocampal slice; assay: Low divalent-induced inward current in CA1 neurons in the hippocampal slice; format: cell-based; details: co-perfusion
From the text: To verify this we tested several compounds with benzene rings on their outer edge such as DAPI and HSB. Both DAPI and HSB are di-cations but with amidine groups at both termini. […] We also examined the actions of NM on CA1 neurons in the hippocampal slice in order to confirm whether or not NM was capable of inhibiting and activating this current in CA1 neurons in situ. The diffusion barriers presented in the slice preparation preclude very rapid changes in divalent cation concentrations but prolonged solution changes can be used to activate TRPM7 currents in this preparation. Lowering concentrations of divalent cations induced a slowly activating inward current that was attenuated by the co-perfusion of NM (not shown).

human TRPM7 channels = test system: human TRPM7 channels; design: method as in PMID 18719395; details: pH 7.4 to 4.0; cited from earlier work
[8] = 200 μM, 0.1 mM Ca2+ and 0.1 mM Mg2+
[9] = 200 μM, current evoked by 0.1 mM Ca2+ and 0.1 mM Mg2+
[10] = current evoked by 0.1 mM Ca2+ and 0.1 mM Mg2+

T3 sequence (Q923J1 whole entry): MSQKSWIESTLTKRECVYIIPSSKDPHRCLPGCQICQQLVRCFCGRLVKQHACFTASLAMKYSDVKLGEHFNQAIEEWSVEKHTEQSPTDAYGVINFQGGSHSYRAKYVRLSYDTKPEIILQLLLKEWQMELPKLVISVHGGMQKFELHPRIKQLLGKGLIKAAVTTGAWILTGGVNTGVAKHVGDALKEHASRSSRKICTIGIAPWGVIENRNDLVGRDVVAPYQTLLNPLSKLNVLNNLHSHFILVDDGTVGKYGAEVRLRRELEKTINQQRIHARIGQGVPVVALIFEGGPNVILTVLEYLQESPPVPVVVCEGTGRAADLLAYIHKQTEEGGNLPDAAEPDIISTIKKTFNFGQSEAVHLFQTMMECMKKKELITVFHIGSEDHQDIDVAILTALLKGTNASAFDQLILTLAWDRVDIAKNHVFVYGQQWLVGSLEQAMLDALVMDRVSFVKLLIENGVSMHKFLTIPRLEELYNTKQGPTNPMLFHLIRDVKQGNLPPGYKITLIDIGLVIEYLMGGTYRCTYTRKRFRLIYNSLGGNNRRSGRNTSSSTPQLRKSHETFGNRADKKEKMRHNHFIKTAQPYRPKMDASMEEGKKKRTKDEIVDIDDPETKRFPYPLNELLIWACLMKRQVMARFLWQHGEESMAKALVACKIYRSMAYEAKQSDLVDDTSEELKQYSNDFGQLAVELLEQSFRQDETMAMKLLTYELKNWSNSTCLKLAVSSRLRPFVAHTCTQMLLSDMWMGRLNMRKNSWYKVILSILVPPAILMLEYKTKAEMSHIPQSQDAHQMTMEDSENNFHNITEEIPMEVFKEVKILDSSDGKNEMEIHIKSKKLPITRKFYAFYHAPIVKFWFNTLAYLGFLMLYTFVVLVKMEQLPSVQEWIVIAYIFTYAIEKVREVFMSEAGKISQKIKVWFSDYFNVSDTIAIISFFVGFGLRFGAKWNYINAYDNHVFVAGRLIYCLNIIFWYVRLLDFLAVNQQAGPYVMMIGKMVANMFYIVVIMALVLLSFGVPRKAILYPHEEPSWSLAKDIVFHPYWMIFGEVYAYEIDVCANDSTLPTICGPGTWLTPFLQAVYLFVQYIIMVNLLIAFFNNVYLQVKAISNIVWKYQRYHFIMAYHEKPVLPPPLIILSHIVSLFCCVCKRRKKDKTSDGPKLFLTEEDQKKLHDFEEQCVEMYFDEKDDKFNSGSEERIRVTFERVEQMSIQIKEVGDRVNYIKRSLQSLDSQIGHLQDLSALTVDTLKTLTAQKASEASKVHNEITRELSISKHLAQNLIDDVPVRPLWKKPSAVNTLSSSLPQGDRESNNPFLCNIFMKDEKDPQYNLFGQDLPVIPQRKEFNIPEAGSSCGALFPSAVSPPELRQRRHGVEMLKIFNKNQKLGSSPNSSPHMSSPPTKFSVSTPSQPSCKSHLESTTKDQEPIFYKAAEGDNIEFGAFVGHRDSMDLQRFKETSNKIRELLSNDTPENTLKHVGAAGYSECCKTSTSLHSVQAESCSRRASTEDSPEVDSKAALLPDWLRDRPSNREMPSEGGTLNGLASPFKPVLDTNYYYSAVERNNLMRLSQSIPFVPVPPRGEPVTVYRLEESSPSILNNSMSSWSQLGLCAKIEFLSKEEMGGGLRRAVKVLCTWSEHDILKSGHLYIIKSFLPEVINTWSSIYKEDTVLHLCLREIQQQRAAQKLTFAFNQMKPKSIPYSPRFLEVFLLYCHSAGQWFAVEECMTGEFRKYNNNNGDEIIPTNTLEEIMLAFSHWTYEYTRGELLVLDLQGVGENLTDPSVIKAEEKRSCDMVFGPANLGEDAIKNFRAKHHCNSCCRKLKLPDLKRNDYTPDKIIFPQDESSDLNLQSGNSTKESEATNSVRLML
T1 sequence (Q96QT4 whole entry): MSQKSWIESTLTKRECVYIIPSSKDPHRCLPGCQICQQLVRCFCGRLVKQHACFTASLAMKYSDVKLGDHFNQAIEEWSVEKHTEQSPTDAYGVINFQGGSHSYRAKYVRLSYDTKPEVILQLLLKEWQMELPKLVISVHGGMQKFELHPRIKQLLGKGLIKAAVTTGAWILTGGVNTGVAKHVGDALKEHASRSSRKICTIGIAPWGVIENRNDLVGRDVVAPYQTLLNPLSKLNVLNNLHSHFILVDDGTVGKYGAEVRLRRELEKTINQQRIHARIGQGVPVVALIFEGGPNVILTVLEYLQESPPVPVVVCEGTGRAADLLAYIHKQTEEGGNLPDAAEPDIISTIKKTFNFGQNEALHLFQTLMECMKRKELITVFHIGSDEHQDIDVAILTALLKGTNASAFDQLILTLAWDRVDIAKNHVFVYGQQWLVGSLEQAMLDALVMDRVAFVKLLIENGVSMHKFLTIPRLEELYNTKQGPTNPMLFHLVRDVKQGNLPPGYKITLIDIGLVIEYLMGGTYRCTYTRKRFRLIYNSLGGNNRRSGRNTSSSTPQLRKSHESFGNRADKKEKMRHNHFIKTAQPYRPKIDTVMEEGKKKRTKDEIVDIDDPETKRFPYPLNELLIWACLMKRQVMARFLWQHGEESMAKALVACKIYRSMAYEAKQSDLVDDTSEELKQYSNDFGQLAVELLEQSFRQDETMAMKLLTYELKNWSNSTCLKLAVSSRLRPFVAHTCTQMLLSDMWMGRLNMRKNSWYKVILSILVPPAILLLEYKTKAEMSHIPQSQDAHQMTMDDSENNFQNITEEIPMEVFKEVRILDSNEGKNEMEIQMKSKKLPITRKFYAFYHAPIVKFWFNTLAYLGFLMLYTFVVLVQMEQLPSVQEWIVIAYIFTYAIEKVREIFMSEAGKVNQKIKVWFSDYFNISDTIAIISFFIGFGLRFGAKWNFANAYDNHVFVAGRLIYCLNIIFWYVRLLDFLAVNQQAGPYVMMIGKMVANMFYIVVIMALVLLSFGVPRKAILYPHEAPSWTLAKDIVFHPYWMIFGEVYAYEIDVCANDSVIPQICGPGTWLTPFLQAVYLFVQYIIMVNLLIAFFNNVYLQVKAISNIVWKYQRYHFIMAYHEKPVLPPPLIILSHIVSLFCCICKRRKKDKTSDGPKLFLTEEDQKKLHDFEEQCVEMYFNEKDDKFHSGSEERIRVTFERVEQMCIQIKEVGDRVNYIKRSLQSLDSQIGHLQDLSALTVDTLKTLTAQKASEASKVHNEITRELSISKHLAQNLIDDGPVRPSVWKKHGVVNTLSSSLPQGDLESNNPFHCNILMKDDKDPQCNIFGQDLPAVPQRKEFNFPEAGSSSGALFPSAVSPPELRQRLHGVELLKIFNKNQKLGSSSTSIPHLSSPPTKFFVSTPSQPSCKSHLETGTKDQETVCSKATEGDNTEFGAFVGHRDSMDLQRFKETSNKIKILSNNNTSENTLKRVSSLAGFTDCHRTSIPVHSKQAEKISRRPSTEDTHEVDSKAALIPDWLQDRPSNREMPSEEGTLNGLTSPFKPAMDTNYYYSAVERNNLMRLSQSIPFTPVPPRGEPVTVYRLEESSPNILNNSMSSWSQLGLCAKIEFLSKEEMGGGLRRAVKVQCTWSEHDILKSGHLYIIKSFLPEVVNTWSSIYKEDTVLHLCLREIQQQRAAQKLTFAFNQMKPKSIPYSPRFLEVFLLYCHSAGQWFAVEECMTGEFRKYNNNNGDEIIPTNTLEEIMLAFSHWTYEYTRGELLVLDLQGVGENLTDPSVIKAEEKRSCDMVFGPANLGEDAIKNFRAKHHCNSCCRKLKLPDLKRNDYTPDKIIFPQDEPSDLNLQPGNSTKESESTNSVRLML

SMILES: CC(=O)N[C@@H](CC(C)C)C(=O)N[C@@H](CC(C)C)C(=O)N[C@H](C=O)CCCNC(=N)N [Leupeptin, leupeptin]
potentiation of TRPM7 current, pre-exposed ([3]; 200 μM): no inhibitory or potentiating effects | block of TRPM7 current, co-applied [3, 9]: no inhibitory or potentiating effects

SMILES: N=C(N)c1ccc(-c2cc3ccc(C(=N)N)cc3[nH]2)cc1 [DAPI]
direct activation of TRPM7 current at physiological divalent cations ([3]; 25 μM, 2 mM Ca2+ and 1 mM Mg2+): without effect | direct activation of TRPM7 current at physiological divalent cations ([3]; 100 μM, 2 mM Ca2+ and 1 mM Mg2+): strong effect | block of TRPM7 current ([3]; 250 μM, current evoked by 0.1 mM Ca2+ and 0.1 mM Mg2+): completely and reversibly blocked | Hill coefficient [3, 10]: 1.8 | IC50 [3, 10]: 38 µM

SMILES: [Mg+2] [Mg^2+]
reduction of IC50 for monovalent cation block on decreasing pH from 7.4 to 4.0 (human TRPM7 channels): 510 fold

Second part, led by results:

increase of inhibitory potency in divalent-free solution versus 0.1 mM divalents ([1]; +100 mV): about 5 fold | Hill coefficient ([1]; +100 mV, 0.1 mM Ca2+ and 0.1 mM Mg2+): 1.4 | IC50 ([1]; +100 mV, 0.1 mM Ca2+ and 0.1 mM Mg2+, read-out: IC50, inhibition of outward TRPM7 current): 617 µM | Hill coefficient ([1]; +100 mV, divalent free solution): 1.2 | IC50 ([1]; +100 mV, divalent free solution, read-out: IC50, inhibition of TRPM7 current): 121 µM | increase of inhibitory potency in divalent-free solution versus 0.1 mM divalents ([1]; -100 mV): 30 fold | Hill coefficient ([1]; -100 mV, 0.1 mM Ca2+ and 0.1 mM Mg2+): 1.3 | IC50 ([1]; -100 mV, 0.1 mM Ca2+ and 0.1 mM Mg2+, read-out: IC50, inhibition of inward TRPM7 current): 514 µM | Hill coefficient ([1]; -100 mV, divalent free solution): 1.3 | IC50 ([1]; -100 mV, divalent free solution, read-out: IC50, inhibition of TRPM7 current): 15 µM | potentiation of TRPM7 currents ([1]; TRPM7-transfected HEK293T cells, ramp-clamp, inward currents at -100 mV): potentiates | inhibition of TRPM7 currents ([1]; in the presence of 1 mM Ca2+ and Mg2+): failed to inhibit | direct activation of TRPM7 current at physiological divalent cations ([3]; 25 μM, 2 mM Ca2+ and 1 mM Mg2+): little effects | amplitude of NM-induced current ([3]; 0.1 mM Ca2+ (with 0.1 Mg2+)): 1018 ± 120 pA | potentiation of evoked TRPM7 current, pre-exposed ([3]; 200 μM applied before lowering divalent cations, current evoked by 0.1 mM Ca2+ and 0.1 mM Mg2+): about 3.6 ± 0.4 fold | offset time constant of inhibition [3, 8]: 1.07 ± 0.20 s | onset time constant of inhibition [3, 8]: 0.29 ± 0.04 s | direct activation of TRPM7 current at physiological divalent cations ([3]; 200 μM, 2 mM Ca2+ and 1 mM Mg2+): induced small inward currents | current amplitude upon NM washout ([3]; 200 μM, 2 mM Ca2+ and 1 mM Mg2+, brief washout): 379 ± 86 pA | amplitude of NM-induced current ([3]; 200 μM, 2 mM Ca2+ and 1 mM Mg2+, during application): 243 ± 66 pA | reversal potential of NM-induced current ([3]; 200 μM, 2 mM Ca2+ and 1 mM Mg2+, voltage ramps): 0 mV | block of TRPM7 current, co-applied [3, 9]: completely blocks | block of TRPM7 current, co-applied ([3]; 200 μM, current evoked by zero divalent cations): reversibly blocked | amplitude of NM-induced current ([3]; 2 mM Ca2+ (with 1 mM Mg2+)): 291 ± 52 pA | amplitude of NM-induced current ([3]; 10 mM Ca2+ (with 1 mM Mg2+)): 147 ± 20 pA | Hill coefficient [3, 10]: 1.4 | IC50 [3, 10]: 27 µM
SMILES: N=C(N)c1ccc2cc(OC(=O)c3ccc(N=C(N)N)cc3)ccc2c1 [NM, 6-amidino-2-naphthyl-4-guanidinobenzobate dimethanesulfonate]
effect on blocking potency of extracellular divalent cations ([1]; 500 μM NM): substantially reduced the blocking potency | inhibition by NM of currents, relative to WT [2]: strongly depressed | NM-induced change of intracellular concentration of Ca2+ ([4]; 200 μM, 2 mM Ca2+, no Mg2+, MK801, CNQX, nimodipine present): induced an increase | net increase of 340/380 ratio on lowering extracellular Ca2+ ([4]; NM 50 μM, Ca2+ from 2.0 mM to 0.5 mM, no added Mg2+, without NM 2.64 ± 0.48): 0.61 ± 0.32 | net increase of 340/380 ratio induced by KCl ([4]; NM 50 μM, KCl 50 mM, 1.67 in the absence of NM): 1.84 | net increase of 340/380 ratio on lowering extracellular Ca2+ [5]: 0.20 ± 0.08 | firing frequency of action potentials [6]: 6.8 ± 2.9 Hz | effect on slowly activating inward current induced by lowering divalent cations [7]: attenuated

block of TRPM7 current, co-applied ([3]; 1 mM (p-GBA up to 1 mM), low divalent-evoked current): neither inhibited | I compound / I control, co-applied ([3]; 1 mM, normalized current): 94 ± 3% | I compound / I control, pre-exposed ([3]; 1 mM, normalized current): 96 ± 1% | potentiation of TRPM7 current, pre-exposed ([3]; up to 1 mM): nor potentiated
SMILES: N=C(N)Nc1ccc(C(=O)O)cc1 [p-GBA, p-guanidinobenzoic acid]
